Values joined by “and” are separate entries in the source; they are usually repeats but may differ in a detail not shown here. Identical values can stand only once. Active and inactive are the calls of the source.
Columns and labels:
[1] = Counterscreen for AddAB inhibitors: absorbance-based bacterial cell-based high throughput dose response assay for inhibitors of bacterial viability. [Related pubchem assays (depositor defined):AID435030, AID449728, AID449731, AID488942, AID488955, AID488956]; format: functional
[2] = inhibitors of SNCA 5'UTR-driven reporter translation, confirmation, H4 neuroglioma cells, luminescence (AID 1988); format: functional, cell-based
[3] = Luminescence Cell-Based Dose Response HTS to Identify Inhibitors of 5'UTR Stem-Loop Driven Prion Protein mRNA Translation in H4 Neuroglioblastoma Cells. [Related pubchem assays: 1827 (Project Summary), 1813 (Primary HTS)]; format: functional
Streptokinase A = molecular target: T1, Streptokinase A (Streptococcus pyogenes serotype M1, UniProt P10520); experiment: S. pyogenes streptokinase expression inhibitors, potency, dose response, plasminogen activation absorbance, OD405 (AID 1914); format: functional, Streptococcus pyogenes M1 GAS;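 further: secreted streptokinase activity via plasminogen activation per viability signal from cell pellet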
T1 sequence (P10520 whole entry): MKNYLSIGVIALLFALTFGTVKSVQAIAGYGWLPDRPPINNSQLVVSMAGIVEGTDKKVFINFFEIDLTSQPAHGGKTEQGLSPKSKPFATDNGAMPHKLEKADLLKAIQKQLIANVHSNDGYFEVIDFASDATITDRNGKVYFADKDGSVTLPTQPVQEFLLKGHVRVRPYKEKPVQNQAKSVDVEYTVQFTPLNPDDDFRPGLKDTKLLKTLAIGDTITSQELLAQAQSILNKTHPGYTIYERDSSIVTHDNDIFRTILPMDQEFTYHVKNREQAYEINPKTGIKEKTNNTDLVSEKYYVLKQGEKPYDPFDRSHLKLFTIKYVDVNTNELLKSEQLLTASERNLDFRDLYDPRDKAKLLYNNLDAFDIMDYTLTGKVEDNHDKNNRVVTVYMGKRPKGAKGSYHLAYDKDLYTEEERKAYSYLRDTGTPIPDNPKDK

[4] = molecular target: Serine/threonine-protein phosphatase (Homo sapiens, UniProt Q9BPW0); experiment: PP5 phosphatase inhibitors, dose response, biochemical, fluorescence (AID 2395)
Serine/threonine-protein phosphatase, sequence (Q9BPW0 whole entry): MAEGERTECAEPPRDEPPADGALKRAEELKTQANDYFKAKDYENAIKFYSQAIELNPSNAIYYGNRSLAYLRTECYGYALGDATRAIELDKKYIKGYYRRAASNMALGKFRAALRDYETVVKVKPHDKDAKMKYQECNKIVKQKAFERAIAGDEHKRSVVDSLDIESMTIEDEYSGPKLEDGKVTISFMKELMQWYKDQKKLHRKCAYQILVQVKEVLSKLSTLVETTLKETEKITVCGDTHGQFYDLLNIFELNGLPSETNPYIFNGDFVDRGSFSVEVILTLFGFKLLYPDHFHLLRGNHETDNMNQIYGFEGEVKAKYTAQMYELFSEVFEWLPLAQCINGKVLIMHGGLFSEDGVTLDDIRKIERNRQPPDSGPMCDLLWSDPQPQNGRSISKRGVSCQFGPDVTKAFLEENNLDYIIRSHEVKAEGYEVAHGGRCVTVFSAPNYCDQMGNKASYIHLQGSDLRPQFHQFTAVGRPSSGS

[5] = molecular target: T2, Sentrin-specific protease 7 (Homo sapiens, UniProt Q9BQF6); format: functional;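 further: Luminescence-based dose-response confirmation of ultra-high-throughput screening hits, measuring inhibition of SENP7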
T2 sequence (Q9BQF6 whole entry): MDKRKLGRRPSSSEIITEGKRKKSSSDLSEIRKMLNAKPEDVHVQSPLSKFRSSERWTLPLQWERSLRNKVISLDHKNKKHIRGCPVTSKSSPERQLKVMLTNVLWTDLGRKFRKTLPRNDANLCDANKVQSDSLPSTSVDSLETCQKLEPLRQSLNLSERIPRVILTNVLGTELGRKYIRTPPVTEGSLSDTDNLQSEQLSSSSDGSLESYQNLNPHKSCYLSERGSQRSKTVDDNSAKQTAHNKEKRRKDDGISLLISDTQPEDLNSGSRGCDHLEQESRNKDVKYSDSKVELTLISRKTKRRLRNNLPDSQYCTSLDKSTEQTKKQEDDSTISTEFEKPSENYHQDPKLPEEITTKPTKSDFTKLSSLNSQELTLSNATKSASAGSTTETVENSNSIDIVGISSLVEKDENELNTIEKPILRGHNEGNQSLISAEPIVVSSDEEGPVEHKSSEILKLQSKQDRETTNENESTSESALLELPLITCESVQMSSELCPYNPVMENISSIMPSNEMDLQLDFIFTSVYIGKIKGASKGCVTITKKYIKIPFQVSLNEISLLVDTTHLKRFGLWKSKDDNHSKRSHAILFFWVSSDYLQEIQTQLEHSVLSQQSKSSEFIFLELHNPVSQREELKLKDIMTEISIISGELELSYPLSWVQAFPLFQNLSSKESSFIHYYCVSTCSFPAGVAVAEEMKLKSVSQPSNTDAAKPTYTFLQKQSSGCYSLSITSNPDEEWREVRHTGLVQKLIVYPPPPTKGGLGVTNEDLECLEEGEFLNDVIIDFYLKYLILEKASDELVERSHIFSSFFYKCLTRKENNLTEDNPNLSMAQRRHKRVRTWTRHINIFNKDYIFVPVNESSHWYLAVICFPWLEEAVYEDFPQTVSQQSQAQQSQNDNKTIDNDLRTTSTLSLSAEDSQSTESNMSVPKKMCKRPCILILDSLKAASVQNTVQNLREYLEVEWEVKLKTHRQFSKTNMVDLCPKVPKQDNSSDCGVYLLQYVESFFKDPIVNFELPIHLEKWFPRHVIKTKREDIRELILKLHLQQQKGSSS

[6] = molecular target: 1-phosphatidylinositol 4,5-bisphosphate phosphodiesterase gamma-1 (Homo sapiens, UniProt P19174); experiment: Counterscreen for inhibitors of phospholipase C isozymes (PLC-B3): Fluorescence-based biochemical high throughput dose response assay to identify inhibitors of phospholipase C isozymes (PLC-gamma1).
1-phosphatidylinositol 4,5-bisphosphate phosphodiesterase gamma-1, sequence (P19174 whole entry): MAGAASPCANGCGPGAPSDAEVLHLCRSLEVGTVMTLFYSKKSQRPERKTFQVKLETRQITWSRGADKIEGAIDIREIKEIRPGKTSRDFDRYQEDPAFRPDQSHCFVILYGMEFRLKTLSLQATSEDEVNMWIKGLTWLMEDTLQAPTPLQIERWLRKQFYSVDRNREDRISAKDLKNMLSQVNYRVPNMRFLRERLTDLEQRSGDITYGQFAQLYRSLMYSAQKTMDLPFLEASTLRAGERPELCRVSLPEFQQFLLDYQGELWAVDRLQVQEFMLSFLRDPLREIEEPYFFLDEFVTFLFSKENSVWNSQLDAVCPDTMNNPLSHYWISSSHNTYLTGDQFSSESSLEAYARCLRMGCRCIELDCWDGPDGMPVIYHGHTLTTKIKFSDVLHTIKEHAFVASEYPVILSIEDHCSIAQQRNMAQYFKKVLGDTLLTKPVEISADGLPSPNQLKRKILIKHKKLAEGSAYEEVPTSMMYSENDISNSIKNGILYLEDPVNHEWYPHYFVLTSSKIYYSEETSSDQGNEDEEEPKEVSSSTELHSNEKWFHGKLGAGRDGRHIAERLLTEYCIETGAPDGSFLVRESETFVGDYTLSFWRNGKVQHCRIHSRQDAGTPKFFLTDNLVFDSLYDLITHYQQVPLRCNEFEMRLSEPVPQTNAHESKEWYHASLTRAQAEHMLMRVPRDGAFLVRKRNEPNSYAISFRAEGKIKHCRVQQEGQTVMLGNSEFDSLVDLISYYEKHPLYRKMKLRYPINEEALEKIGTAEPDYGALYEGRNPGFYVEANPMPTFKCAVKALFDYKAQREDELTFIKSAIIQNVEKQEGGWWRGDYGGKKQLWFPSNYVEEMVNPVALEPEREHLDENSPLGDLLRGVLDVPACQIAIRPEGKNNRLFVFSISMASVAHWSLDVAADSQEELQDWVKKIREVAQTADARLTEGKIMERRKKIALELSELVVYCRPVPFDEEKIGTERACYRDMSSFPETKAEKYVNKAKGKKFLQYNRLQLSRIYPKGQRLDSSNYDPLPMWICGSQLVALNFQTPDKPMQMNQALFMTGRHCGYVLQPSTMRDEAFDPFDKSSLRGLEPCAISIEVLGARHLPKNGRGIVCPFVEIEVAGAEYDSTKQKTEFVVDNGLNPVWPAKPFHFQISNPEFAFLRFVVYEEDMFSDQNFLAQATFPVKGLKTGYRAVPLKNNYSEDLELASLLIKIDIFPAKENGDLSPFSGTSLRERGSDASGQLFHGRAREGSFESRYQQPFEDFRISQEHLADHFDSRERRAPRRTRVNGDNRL

[7] = molecular target: NAD-dependent protein deacylase sirtuin-5, mitochondrial (Homo sapiens, UniProt Q9NXA8); experiment: SIRT5 desuccinylase inhibitors, dose response, biochemical, fluorescence imaging, cherry-pick, set 5 (AID 720591);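 further: desuccinylation of succinyl peptide AMC substrate read as fluorescence after trypsin release; potency of inhibitors that lower fluorescence and may act on trypsin instead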
NAD-dependent protein deacylase sirtuin-5, mitochondrial, sequence (Q9NXA8 whole entry): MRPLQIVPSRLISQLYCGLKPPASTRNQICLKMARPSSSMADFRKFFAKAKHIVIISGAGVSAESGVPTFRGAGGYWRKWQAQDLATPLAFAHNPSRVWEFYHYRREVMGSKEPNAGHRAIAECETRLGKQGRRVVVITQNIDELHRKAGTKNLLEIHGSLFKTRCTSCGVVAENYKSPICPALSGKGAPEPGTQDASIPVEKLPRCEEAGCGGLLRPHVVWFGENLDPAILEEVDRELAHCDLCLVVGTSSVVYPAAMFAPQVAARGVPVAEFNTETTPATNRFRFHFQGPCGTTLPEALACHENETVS

[8] = molecular target: T3, Dual specificity protein phosphatase 6 (Rattus norvegicus, UniProt Q64346); format: functional;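 further: confirmatory in vitro dose-response testing of MKP-3 inhibition; recombinant His-tagged MKP-3 made in E. coli BL21 with OMFP substrate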
T3 sequence (Q64346 whole entry): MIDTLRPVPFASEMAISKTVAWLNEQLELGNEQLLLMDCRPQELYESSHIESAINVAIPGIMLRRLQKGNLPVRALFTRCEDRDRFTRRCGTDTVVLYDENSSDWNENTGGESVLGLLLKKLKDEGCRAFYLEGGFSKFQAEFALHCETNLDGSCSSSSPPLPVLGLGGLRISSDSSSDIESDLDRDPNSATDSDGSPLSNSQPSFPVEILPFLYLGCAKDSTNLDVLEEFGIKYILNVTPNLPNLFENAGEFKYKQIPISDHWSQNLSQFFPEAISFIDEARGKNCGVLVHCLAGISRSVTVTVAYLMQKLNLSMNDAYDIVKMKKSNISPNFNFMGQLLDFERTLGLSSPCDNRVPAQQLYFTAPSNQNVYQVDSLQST

[9] = molecular target: Intestinal-type alkaline phosphatase (Homo sapiens, UniProt P09923); experiment: activation of human intestinal alkaline phosphatase – biochemical, dose response (AID 488873); format: functional
Intestinal-type alkaline phosphatase, sequence (P09923 whole entry): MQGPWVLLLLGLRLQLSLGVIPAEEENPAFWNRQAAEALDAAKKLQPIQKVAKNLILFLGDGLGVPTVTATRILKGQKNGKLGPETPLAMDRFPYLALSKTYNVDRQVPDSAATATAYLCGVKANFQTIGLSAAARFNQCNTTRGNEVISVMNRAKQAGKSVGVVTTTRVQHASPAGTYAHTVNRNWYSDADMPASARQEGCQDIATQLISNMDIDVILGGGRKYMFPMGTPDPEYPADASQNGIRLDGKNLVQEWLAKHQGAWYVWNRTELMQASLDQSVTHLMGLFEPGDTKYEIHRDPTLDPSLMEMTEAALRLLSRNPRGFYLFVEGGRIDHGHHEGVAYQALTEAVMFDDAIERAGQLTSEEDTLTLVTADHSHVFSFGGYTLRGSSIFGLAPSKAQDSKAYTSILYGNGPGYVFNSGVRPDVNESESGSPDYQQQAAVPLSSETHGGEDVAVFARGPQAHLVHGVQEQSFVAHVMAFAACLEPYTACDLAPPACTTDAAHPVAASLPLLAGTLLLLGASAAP

[10] = molecular target: Dual specificity protein phosphatase 3 (Homo sapiens, UniProt P51452); experiment: SAR VHR1 Fluorescent Assay for In Vitro dose response studies Set 2. [Related pubchem assays (depositor defined):AID1654, AID1661, AID1878]; format: functional
Dual specificity protein phosphatase 3, sequence (P51452 whole entry): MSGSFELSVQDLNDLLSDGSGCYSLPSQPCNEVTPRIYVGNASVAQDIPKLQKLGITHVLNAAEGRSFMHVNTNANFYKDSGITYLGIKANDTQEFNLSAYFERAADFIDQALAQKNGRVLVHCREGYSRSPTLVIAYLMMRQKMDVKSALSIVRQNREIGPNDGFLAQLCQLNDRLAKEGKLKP

O=C1c2ccccc2C(=O)c2[nH]c(O)nc21
IC50 [1]: > 119 µM (inactive) | EC50 [2]: 4.26 µM (active) | EC50 [3]: 8.19 µM (active) | EC50 (Streptokinase A): 130 µM (active)

CCOC(=O)C1=C(C)OC2(O)c3ccccc3C(=O)C12O (stereo unspecified)
IC50 [4]: > 67 µM (not active) | IC50 [5]: 3.27 µM (active)

COC(=O)c1cc(C)nc2c1C(=O)C(=O)C=C2N1CCOCC1
IC50 [6]: 13.7 µM (inactive)

NS(=O)(=O)c1cc(C(=O)NC2CCSc3ccccc32)ccc1Cl (stereo unspecified)
AC50 [7]: 6.65 µM (active) | IC50 [8]: 2.96 µM (active) and > 100 µM (inactive) | EC50 [9]: 49.4 µM (active) | IC50 [10]: > 100 µM (inactive) and 82.8 nM (active)

— ChEMBL document CHEMBL1201862, “PubChem BioAssay data set” (2004)
